In ChEMBL document CHEMBL3865792, “Antioxidant and antitumor activity of trolox, trolox succinate, and α-tocopheryl succinate conjugates with nitroxides” (Eur J Med Chem, 2016):

Tested on: not listed separately
Assay: Genotoxicity in Escherichia coli PQ37 expressing lacZ gene assessed as ratio of inducible beta-galactosidase activity to alkaline phosphatase activity at 30 mM after 2 hrs by SOS-chromotest relative to control
Type: toxicity
Conditions: Escherichia coli PQ37 cells expressing lacZ gene, read-out: FC

Row | SMILES | fold induction at 2 h, 30000 µM
1 | Cc1c(C)c2c(c(C)c1OC(=O)CCC(=O)NCC1CC(C)(C)N([O])C1(C)C)CCC(C)(C(=O)NCC1CC(C)(C)N([O])C1(C)C)O2 (configuration not stated) | 1.2
2 | Cc1c(C)c2c(c(C)c1O)CCC(C)(C(=O)NC1CC(C)(C)N([O])C1(C)C)O2 (configuration not stated) | 1.2

Tested on: Salmonella typhimurium
Assay: Genotoxicity in Salmonella typhimurium TA102 harboring […] mutant assessed as frequency of reversion from histidine auxotrophy to prototrophy at 30 mM after 48 hrs by Ames test (reference value: 209 +/- 10 No _unit)
Type: toxicity, organism-based
Conditions: salmonella enterica subsp. enterica serovar typhimurium, 30000 µM

Row | SMILES | Activity
3 | Cc1c(C)c2c(c(C)c1OC(=O)CCC(=O)NCC1CC(C)(C)N([O])C1(C)C)CCC(C)(C(=O)NCC1CC(C)(C)N([O])C1(C)C)O2 (configuration not stated) | 209
4 | Cc1c(C)c2c(c(C)c1O)CCC(C)(C(=O)NC1CC(C)(C)N([O])C1(C)C)O2 (configuration not stated) | 221

Tested on: Salmonella enterica subsp. enterica serovar Typhimurium
Assay: Antioxidant activity in Salmonella typhimurium TA102 harboring […] mutant assessed as inhibition of t-BuO2H-dependant mutant formation at 0.3 uM preincubated with compound followed by t-BuO2H addition after 48 hrs by Ames test
Type: functional
Conditions: not given

Row | SMILES | inhibition [%]
5 | Cc1c(C)c2c(c(C)c1OC(=O)CCC(=O)NCC1CC(C)(C)N([O])C1(C)C)CCC(C)(C(=O)NCC1CC(C)(C)N([O])C1(C)C)O2 (configuration not stated) | 13
6 | Cc1c(C)c2c(c(C)c1O)CCC(C)(C(=O)NC1CC(C)(C)N([O])C1(C)C)O2 (configuration not stated) | 55.2

Tested on: Salmonella enterica subsp. enterica serovar Typhimurium
Assay: Antioxidant activity in Salmonella typhimurium TA102 harboring […] mutant assessed as inhibition of t-BuO2H-dependant mutant formation at 3 uM preincubated with compound followed by t-BuO2H addition after 48 hrs by Ames test
Type: functional
Conditions: not given

Row | SMILES | inhibition [%]
7 | Cc1c(C)c2c(c(C)c1OC(=O)CCC(=O)NCC1CC(C)(C)N([O])C1(C)C)CCC(C)(C(=O)NCC1CC(C)(C)N([O])C1(C)C)O2 (configuration not stated) | 23
8 | Cc1c(C)c2c(c(C)c1O)CCC(C)(C(=O)NC1CC(C)(C)N([O])C1(C)C)O2 (configuration not stated) | 57.6

Tested on: Salmonella enterica subsp. enterica serovar Typhimurium
Assay: Antioxidant activity in Salmonella typhimurium TA102 harboring […] mutant assessed as inhibition of t-BuO2H-dependant mutant formation at 30 uM preincubated with compound followed by t-BuO2H addition after 48 hrs by Ames test
Type: functional
Conditions: not given

Row | SMILES | inhibition [%]
9 | Cc1c(C)c2c(c(C)c1OC(=O)CCC(=O)NCC1CC(C)(C)N([O])C1(C)C)CCC(C)(C(=O)NCC1CC(C)(C)N([O])C1(C)C)O2 (configuration not stated) | 20
10 | Cc1c(C)c2c(c(C)c1O)CCC(C)(C(=O)NC1CC(C)(C)N([O])C1(C)C)O2 (configuration not stated) | 62

Tested on: not listed separately
Assay: Cytotoxicity against human MCF7 cells assessed as reduction in cell viability after 72 hrs by MTT assay
Type: functional, cell-based
Conditions: MCF7, 72 h

Row | SMILES | IC50 [µM]
11 | Cc1c(C)c2c(c(C)c1OC(=O)CCC(=O)NCC1CC(C)(C)N([O])C1(C)C)CCC(C)(C(=O)NCC1CC(C)(C)N([O])C1(C)C)O2 (configuration not stated) | > 300
12 | Cc1c(C)c2c(c(C)c1O)CCC(C)(C(=O)NC1CC(C)(C)N([O])C1(C)C)O2 (configuration not stated) | 58

Tested on: not listed separately
Assay: Cytotoxicity against human RPMI8226 cells assessed as reduction in cell viability after 72 hrs by MTT assay
Type: functional, cell-based
Conditions: RPMI-8226, 72 h

Row | SMILES | IC50 [µM]
13 | Cc1c(C)c2c(c(C)c1OC(=O)CCC(=O)NCC1CC(C)(C)N([O])C1(C)C)CCC(C)(C(=O)NCC1CC(C)(C)N([O])C1(C)C)O2 (configuration not stated) | 70
14 | Cc1c(C)c2c(c(C)c1O)CCC(C)(C(=O)NC1CC(C)(C)N([O])C1(C)C)O2 (configuration not stated) | 58

Tested on: not listed separately
Assay: Cytotoxicity against human HepG2 cells assessed as reduction in cell viability after 72 hrs by MTT assay
Type: functional, cell-based
Conditions: HepG2, 72 h

Row | SMILES | IC50 [µM]
15 | Cc1c(C)c2c(c(C)c1OC(=O)CCC(=O)NCC1CC(C)(C)N([O])C1(C)C)CCC(C)(C(=O)NCC1CC(C)(C)N([O])C1(C)C)O2 (configuration not stated) | 176
16 | Cc1c(C)c2c(c(C)c1O)CCC(C)(C(=O)NC1CC(C)(C)N([O])C1(C)C)O2 (configuration not stated) | 145

Tested on: not listed separately
Assay: Cytotoxicity against human CEM13 cells assessed as reduction in cell viability after 72 hrs by MTT assay
Type: functional, cell-based
Conditions: CEM13, 72 h

Row | SMILES | IC50 [µM]
17 | Cc1c(C)c2c(c(C)c1OC(=O)CCC(=O)NCC1CC(C)(C)N([O])C1(C)C)CCC(C)(C(=O)NCC1CC(C)(C)N([O])C1(C)C)O2 (configuration not stated) | 107
18 | Cc1c(C)c2c(c(C)c1O)CCC(C)(C(=O)NC1CC(C)(C)N([O])C1(C)C)O2 (configuration not stated) | > 300

Tested on: not listed separately
Assay: Cytotoxicity against human U937 cells assessed as reduction in cell viability after 72 hrs by MTT assay
Type: functional, cell-based
Conditions: U-937, 72 h

Row | SMILES | IC50 [µM]
19 | Cc1c(C)c2c(c(C)c1OC(=O)CCC(=O)NCC1CC(C)(C)N([O])C1(C)C)CCC(C)(C(=O)NCC1CC(C)(C)N([O])C1(C)C)O2 (configuration not stated) | 61
20 | Cc1c(C)c2c(c(C)c1O)CCC(C)(C(=O)NC1CC(C)(C)N([O])C1(C)C)O2 (configuration not stated) | 98

Tested on: not listed separately
Assay: Cytotoxicity against human MT4 cells assessed as reduction in cell viability after 72 hrs by MTT assay
Type: functional, cell-based
Conditions: MT4, 72 h

Row | SMILES | IC50 [µM]
21 | Cc1c(C)c2c(c(C)c1OC(=O)CCC(=O)NCC1CC(C)(C)N([O])C1(C)C)CCC(C)(C(=O)NCC1CC(C)(C)N([O])C1(C)C)O2 (configuration not stated) | 114
22 | Cc1c(C)c2c(c(C)c1O)CCC(C)(C(=O)NC1CC(C)(C)N([O])C1(C)C)O2 (configuration not stated) | 144

Tested on: not listed separately
Assay: Cytotoxicity against mouse LMTK cells assessed as reduction in cell viability after 72 hrs by MTT assay
Type: toxicity
Conditions: not given

Row | SMILES | IC50 at 72 h [µM]
23 | Cc1c(C)c2c(c(C)c1OC(=O)CCC(=O)NCC1CC(C)(C)N([O])C1(C)C)CCC(C)(C(=O)NCC1CC(C)(C)N([O])C1(C)C)O2 (configuration not stated) | > 300
24 | Cc1c(C)c2c(c(C)c1O)CCC(C)(C(=O)NC1CC(C)(C)N([O])C1(C)C)O2 (configuration not stated) | > 300

Tested on: not listed separately
Assay: Cytotoxicity against hamster AG17-1 cells assessed as reduction in cell viability after 72 hrs by MTT assay
Type: toxicity, cell-based, Cricetulus griseus
Conditions: Chinese hamster

Row | SMILES | IC50 at 72 h [µM]
25 | Cc1c(C)c2c(c(C)c1OC(=O)CCC(=O)NCC1CC(C)(C)N([O])C1(C)C)CCC(C)(C(=O)NCC1CC(C)(C)N([O])C1(C)C)O2 (configuration not stated) | 50
26 | Cc1c(C)c2c(c(C)c1O)CCC(C)(C(=O)NC1CC(C)(C)N([O])C1(C)C)O2 (configuration not stated) | 194

Tested on: not listed separately
Assay: Cytotoxicity against human MCF7 cells assessed as reduction in cell viability at 300 uM after 72 hrs by MTT assay
Type: functional
Conditions: MCF7, 72 h

Row | SMILES | inhibition at 300 µM [%]
27 | Cc1c(C)c2c(c(C)c1OC(=O)CCC(=O)NCC1CC(C)(C)N([O])C1(C)C)CCC(C)(C(=O)NCC1CC(C)(C)N([O])C1(C)C)O2 (configuration not stated) | 32

Tested on: not listed separately
Assay: Cytotoxicity against human CEM13 cells assessed as reduction in cell viability at 300 uM after 72 hrs by MTT assay
Type: functional
Conditions: CEM13, 72 h

Row | SMILES | inhibition at 300 µM [%]
28 | Cc1c(C)c2c(c(C)c1O)CCC(C)(C(=O)NC1CC(C)(C)N([O])C1(C)C)O2 (configuration not stated) | 45

Tested on: not listed separately
Assay: Cytotoxicity against mouse LMTK cells assessed as reduction in cell viability at 300 uM after 72 hrs by MTT assay
Type: toxicity
Conditions: read-out: INH

Row | SMILES | cytotoxicity at 72 h, 300 µM [%]
29 | Cc1c(C)c2c(c(C)c1OC(=O)CCC(=O)NCC1CC(C)(C)N([O])C1(C)C)CCC(C)(C(=O)NCC1CC(C)(C)N([O])C1(C)C)O2 (configuration not stated) | 10
30 | Cc1c(C)c2c(c(C)c1O)CCC(C)(C(=O)NC1CC(C)(C)N([O])C1(C)C)O2 (configuration not stated) | 32

Tested on: not listed separately
Assay: Ratio of IC50 for human MCF7 cells to concentration causing antioxidant activity in Salmonella typhimurium TA102 harboring […] mutant
Type: functional
Conditions: not given

Row | SMILES | Ratio
31 | Cc1c(C)c2c(c(C)c1OC(=O)CCC(=O)NCC1CC(C)(C)N([O])C1(C)C)CCC(C)(C(=O)NCC1CC(C)(C)N([O])C1(C)C)O2 (configuration not stated) | 100 - 1000
32 | Cc1c(C)c2c(c(C)c1O)CCC(C)(C(=O)NC1CC(C)(C)N([O])C1(C)C)O2 (configuration not stated) | 100 - 1000

Tested on: not listed separately
Assay: Ratio of IC50 for human RPMI8226 cells to concentration causing antioxidant activity in Salmonella typhimurium TA102 harboring […] mutant
Type: functional, RPMI-8226
Conditions: not given

Row | SMILES | Ratio
33 | Cc1c(C)c2c(c(C)c1OC(=O)CCC(=O)NCC1CC(C)(C)N([O])C1(C)C)CCC(C)(C(=O)NCC1CC(C)(C)N([O])C1(C)C)O2 (configuration not stated) | 100 - 1000
34 | Cc1c(C)c2c(c(C)c1O)CCC(C)(C(=O)NC1CC(C)(C)N([O])C1(C)C)O2 (configuration not stated) | 100 - 1000

Tested on: not listed separately
Assay: Ratio of IC50 for human HEPG2 cells to concentration causing antioxidant activity in Salmonella typhimurium TA102 harboring […] mutant
Type: functional
Conditions: not given

Row | SMILES | Ratio
35 | Cc1c(C)c2c(c(C)c1OC(=O)CCC(=O)NCC1CC(C)(C)N([O])C1(C)C)CCC(C)(C(=O)NCC1CC(C)(C)N([O])C1(C)C)O2 (configuration not stated) | 100 - 1000
36 | Cc1c(C)c2c(c(C)c1O)CCC(C)(C(=O)NC1CC(C)(C)N([O])C1(C)C)O2 (configuration not stated) | 100 - 1000

Tested on: not listed separately
Assay: Ratio of IC50 for human CEM13 cells to concentration causing antioxidant activity in Salmonella typhimurium TA102 harboring […] mutant
Type: functional
Conditions: not given

Row | SMILES | Ratio
37 | Cc1c(C)c2c(c(C)c1OC(=O)CCC(=O)NCC1CC(C)(C)N([O])C1(C)C)CCC(C)(C(=O)NCC1CC(C)(C)N([O])C1(C)C)O2 (configuration not stated) | 100 - 1000
38 | Cc1c(C)c2c(c(C)c1O)CCC(C)(C(=O)NC1CC(C)(C)N([O])C1(C)C)O2 (configuration not stated) | 100 - 1000

Tested on: not listed separately
Assay: Ratio of IC50 for human MT4 cells to concentration causing antioxidant activity in Salmonella typhimurium TA102 harboring […] mutant
Type: functional
Conditions: not given

Row | SMILES | Ratio
39 | Cc1c(C)c2c(c(C)c1OC(=O)CCC(=O)NCC1CC(C)(C)N([O])C1(C)C)CCC(C)(C(=O)NCC1CC(C)(C)N([O])C1(C)C)O2 (configuration not stated) | 100 - 1000
40 | Cc1c(C)c2c(c(C)c1O)CCC(C)(C(=O)NC1CC(C)(C)N([O])C1(C)C)O2 (configuration not stated) | 100 - 1000

Tested on: not listed separately
Assay: Ratio of IC50 for human U937 cells to concentration causing antioxidant activity in Salmonella typhimurium TA102 harboring […] mutant
Type: functional, U-937
Conditions: not given

Row | SMILES | Ratio
41 | Cc1c(C)c2c(c(C)c1OC(=O)CCC(=O)NCC1CC(C)(C)N([O])C1(C)C)CCC(C)(C(=O)NCC1CC(C)(C)N([O])C1(C)C)O2 (configuration not stated) | 100 - 1000
42 | Cc1c(C)c2c(c(C)c1O)CCC(C)(C(=O)NC1CC(C)(C)N([O])C1(C)C)O2 (configuration not stated) | 100 - 1000
